Laboratory results taken from article PMC12016938, “A small molecule PKCε inhibitor reduces hyperalgesia induced by paclitaxel or opioid withdrawal” (JCI Insight, 2025).
“And” between values parts separate entries of the source, which are not always exact repeats. Equal values may be shown once.

Assays:
[1] = Plasma stability; settings: for % Absolute: human plasma (hPL); for half-life: human
Description: Plasma stability. To determine in vitro plasma stability, we calculated in vitro plasma half-life. We incubated test substances (0.6 μL) with 60 μL human plasma (BioIVT) in quadruplicate at 37°C.

[2] = target: T1, PKCθ (Homo sapiens, UniProt Q04759); assay: Lance-FRET kinase assay, PKCθ; type: biochemical; design: purchased SignalChem Biotech
Description: (§1) Kinase assays. CP612 was assayed against His-AVI–tagged human PKCε (1 nM) produced in Sf9 cells, and ROCK1 (Carna Biosciences; 5 nM) using the Lance-FRET kinase assay system (PerkinElmer Revvity). Other human recombinant PKCs (SignalChem Biotech) were assayed in triplicate at the following concentrations: PKCβII 1.6 nM, PKCγ 500 pM, PKCδ 5 nM, PKCθ 500 pM, and PKCζ 500 pM. PKCs were incubated in a 15 μL reaction volume with kinase buffer (20 mM Tris-HCL [pH 7.4], 10 mM MgCl2, 0.25 mM EGTA, 0.1 mg/mL BSA, and 0.15% Triton X-100), 50 nM ULight-labeled CREBtide […] (PerkinElmer, TRF0107, Revvity), and test compound. […] After incubation at 27°C for another 60 minutes, phosphorylation was detected using a FlexStation 3 Microplate Reader (Molecular Devices) in LANCE TR-FRET mode (excitation = 340 nm, emission = 665 nm) and expressed as relative fluorescence units (RFU). The percentage of inhibition was calculated as: (signal without test compound − signal with test compound)/(signal without test compound − signal without ATP) × 100. […]
(§2) Kinase assays used 11-point concentration-response curves and results were analyzed by nonlinear regression using Prism 9 (GraphPad Software) to determine IC50 values. […] Scores for pain threshold, conditioned place preference, and self-administration were analyzed by ANOVA using the following factors. […]

[3] = target: ROCK1 (Homo sapiens, UniProt Q13464); assay: Lance-FRET kinase assay, ROCK1; type: biochemical; design: purchased Carna Biosciences; settings: mean of all runs (count 42 CP612; 38 CIDD-0072424); 2.5 μM ATP; read-out: IC50 (nM) [Enzyme: ROCK1], mean
Description: as §1, §2

[4] = in vitro; settings: human, microsomes; for half-life at 8.5 μM: both
Description: Microsomal clearance. To determine if CP612 was a likely substrate for first-pass hepatic metabolism, we measured the stability of CP612 in the presence of human liver microsomes (BioIVT) pooled from over 100 male and female individuals. […] Test compounds were diluted to 10 μM in 0.1M PBS, and then 51 μL were dispensed in quadruplicate into wells of a 96-well plate, which was shaken at 600 rpm at 37°C. Reactions were initiated by adding 1.5 μL of microsomes (20 mg/mL) to the wells and 3 minutes later adding 7.5 μL of 8 mM NADPH (1 mM final concentration). Samples incubated without NADPH were used as negative controls.

[5] = target: T1, PKCθ; assay: scanMax kinome panel, PKCθ; type: binding; design: purchased Eurofins-DiscoverX; settings: 200 nM CP612; read-out: scanMax % of control, PKCθ
Description: (§3) CP612 was screened for kinome specificity at 200 nM against 468 kinases using the scanMax assay panel from Eurofins-DiscoverX. CP612 inhibited 10 other WT kinases besides PKCε, all to < 10% of control: CLK1 (CDC Like Kinase 1), CLK4, PKN1 (Protein kinase N1), PKN2, PKCδ, PKCη, PKCθ, PRKG2 (Protein Kinase CGMP-Dependent 2), ROCK1, and ROCK2.

[6] = target: PKCδ (Homo sapiens, UniProt Q05655); assay: Lance-FRET kinase assay, PKCδ; type: biochemical; design: purchased SignalChem Biotech
Description: as §1, §2

[7] = target: T2, PKCζ (Homo sapiens, UniProt Q05513); assay: Lance-FRET kinase assay, PKCζ; type: biochemical; settings: Figure 1B
T2 construct: purchased SignalChem Biotech
Description: as §1, §2

[8] = target: T3, PKN2 (Homo sapiens, UniProt Q16513); assay: scanMax kinome panel, PKN2; type: binding; settings: 200 nM CP612
T3 construct: purchased Eurofins-DiscoverX
Description: as §3

T1 sequence (Q04759 whole entry): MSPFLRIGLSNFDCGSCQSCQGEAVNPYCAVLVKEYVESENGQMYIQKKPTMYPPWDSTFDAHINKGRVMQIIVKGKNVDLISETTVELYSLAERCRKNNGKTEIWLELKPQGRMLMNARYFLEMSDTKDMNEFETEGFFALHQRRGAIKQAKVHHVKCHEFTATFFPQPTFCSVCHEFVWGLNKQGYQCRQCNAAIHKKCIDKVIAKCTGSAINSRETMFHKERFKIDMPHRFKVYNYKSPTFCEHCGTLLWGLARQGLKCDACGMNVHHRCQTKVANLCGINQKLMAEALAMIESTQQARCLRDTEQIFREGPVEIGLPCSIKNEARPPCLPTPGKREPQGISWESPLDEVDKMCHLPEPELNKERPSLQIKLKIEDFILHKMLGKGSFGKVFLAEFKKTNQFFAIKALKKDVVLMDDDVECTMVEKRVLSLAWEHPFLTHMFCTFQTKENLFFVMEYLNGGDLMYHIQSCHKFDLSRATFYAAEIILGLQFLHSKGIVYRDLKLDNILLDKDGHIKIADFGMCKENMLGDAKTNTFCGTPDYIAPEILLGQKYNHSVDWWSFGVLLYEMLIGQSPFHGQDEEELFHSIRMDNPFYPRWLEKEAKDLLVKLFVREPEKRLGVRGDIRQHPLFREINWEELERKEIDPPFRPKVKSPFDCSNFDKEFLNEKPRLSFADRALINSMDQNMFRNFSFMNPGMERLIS
Chain of PKCδ (Q05655 whole entry): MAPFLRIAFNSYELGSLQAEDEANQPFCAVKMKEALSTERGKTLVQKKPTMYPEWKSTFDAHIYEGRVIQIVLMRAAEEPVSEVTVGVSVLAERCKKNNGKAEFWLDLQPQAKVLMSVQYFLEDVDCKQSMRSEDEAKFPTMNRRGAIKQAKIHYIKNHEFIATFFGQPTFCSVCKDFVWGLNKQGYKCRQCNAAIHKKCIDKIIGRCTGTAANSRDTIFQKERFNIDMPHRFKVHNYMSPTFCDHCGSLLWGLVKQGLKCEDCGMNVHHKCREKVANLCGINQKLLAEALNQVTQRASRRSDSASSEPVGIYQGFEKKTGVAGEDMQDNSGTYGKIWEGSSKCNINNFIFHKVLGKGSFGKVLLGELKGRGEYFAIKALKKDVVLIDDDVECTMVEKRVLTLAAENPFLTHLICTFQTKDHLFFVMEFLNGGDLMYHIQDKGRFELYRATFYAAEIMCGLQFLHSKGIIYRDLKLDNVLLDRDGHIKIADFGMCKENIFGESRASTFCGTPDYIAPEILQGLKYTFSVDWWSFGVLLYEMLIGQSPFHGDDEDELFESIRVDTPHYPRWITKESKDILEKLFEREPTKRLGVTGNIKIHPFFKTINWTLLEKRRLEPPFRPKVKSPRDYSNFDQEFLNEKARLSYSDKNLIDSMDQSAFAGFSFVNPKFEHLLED
T2 sequence (Q05513 whole entry): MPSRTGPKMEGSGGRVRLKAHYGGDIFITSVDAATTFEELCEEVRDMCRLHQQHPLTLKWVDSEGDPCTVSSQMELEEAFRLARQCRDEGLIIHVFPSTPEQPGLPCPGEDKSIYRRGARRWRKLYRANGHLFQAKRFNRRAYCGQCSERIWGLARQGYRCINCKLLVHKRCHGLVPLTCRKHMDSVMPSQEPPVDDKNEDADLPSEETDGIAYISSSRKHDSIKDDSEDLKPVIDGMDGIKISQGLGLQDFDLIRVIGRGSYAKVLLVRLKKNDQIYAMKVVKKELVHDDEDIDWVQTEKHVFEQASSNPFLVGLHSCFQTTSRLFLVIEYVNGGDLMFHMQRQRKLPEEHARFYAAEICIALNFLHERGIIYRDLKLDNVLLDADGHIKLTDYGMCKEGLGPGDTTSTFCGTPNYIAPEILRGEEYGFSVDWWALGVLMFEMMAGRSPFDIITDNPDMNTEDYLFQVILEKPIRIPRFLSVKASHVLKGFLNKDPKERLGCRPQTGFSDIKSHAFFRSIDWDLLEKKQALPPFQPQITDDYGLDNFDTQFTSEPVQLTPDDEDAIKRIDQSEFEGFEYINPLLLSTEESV
Chain of ROCK1 (Q13464 1-477 limits assumed): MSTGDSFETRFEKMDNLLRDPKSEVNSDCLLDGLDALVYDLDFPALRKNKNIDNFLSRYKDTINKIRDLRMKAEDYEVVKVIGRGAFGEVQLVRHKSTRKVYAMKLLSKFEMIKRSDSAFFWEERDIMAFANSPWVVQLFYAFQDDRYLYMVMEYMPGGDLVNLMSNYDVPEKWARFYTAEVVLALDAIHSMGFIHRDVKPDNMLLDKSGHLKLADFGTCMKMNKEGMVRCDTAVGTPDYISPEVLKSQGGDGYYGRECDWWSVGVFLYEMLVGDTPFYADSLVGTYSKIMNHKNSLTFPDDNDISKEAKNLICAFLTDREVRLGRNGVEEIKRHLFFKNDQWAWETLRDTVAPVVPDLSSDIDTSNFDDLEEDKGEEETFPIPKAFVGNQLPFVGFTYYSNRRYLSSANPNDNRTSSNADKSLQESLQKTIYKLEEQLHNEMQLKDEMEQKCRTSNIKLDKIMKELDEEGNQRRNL
T3 sequence (Q16513 whole entry): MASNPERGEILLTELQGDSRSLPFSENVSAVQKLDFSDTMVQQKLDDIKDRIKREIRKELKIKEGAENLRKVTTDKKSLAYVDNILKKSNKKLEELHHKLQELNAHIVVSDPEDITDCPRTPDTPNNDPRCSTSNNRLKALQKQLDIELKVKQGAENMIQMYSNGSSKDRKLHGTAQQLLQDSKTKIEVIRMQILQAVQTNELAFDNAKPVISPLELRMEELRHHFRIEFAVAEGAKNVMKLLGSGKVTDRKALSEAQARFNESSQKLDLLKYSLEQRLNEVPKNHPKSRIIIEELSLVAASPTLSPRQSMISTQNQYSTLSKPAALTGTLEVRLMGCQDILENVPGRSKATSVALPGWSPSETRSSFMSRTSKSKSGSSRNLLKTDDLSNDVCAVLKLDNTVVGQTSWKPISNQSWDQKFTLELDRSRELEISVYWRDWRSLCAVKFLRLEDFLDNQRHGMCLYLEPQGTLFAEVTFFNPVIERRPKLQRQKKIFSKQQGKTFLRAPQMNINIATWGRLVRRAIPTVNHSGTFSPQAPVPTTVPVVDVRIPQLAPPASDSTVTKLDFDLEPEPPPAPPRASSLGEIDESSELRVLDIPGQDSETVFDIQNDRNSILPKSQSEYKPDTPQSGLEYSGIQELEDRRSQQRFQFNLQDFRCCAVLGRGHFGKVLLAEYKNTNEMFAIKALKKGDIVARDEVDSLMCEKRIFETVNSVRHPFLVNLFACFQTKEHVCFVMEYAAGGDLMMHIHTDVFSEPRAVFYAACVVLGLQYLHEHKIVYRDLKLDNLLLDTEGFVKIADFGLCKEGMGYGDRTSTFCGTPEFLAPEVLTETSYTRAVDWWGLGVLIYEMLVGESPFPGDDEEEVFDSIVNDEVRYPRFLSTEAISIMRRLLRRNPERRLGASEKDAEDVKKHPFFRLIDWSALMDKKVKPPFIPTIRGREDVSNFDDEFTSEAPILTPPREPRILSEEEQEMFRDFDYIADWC

With `N[C@H](CNC(=O)C1(c2ccc(Cl)cc2)CCCC1)c1ccc(C(=O)Nc2ccncc2)cc1` [CP612] the “Plasma stability (in words)” value ([1]; human plasma) was “good”, the “% Absolute” value ([1]; time 0 min, individual replicates) was 98.366% and 71.452% and 77.756% and the “% Absolute” value ([1]; time 15 min, individual replicates) was 34.724% and 41.198% and 31.011%. The “% Absolute” value ([1]; time 30 min, individual replicates) was 46.894% and 51.340% and 53.939%, the “% Absolute” value ([1]; time 60 min, individual replicates) was 48.950% and 36.305% and 40.476% and the “Plasma stability Cl” value ([1]; human plasma, 37°C) was 0.46 ± 0.04 µL/min. For the same compound, the “Cl (clearance)” value ([1]; human plasma, individual replicates) was 0.504 and 0.448 and 0.437, the “t1/2 (half life)” value ([1]; human plasma, individual replicates, time axis in min, in min) was 92.829 and 95.187 and the k ([1]; human plasma, slope of Ln Transform vs Time (min), individual replicates) was -0.008 and -0.00747 and -0.007. It also gave a half-life ([1]; human plasma, Plasma stability t½ (min), 37°C) of 1.5 ± 0.113 h, a half-life ([1]; plasma, t1/2 (half life), Mean, human plasma, mean of replicates, time axis in min) of 1.5 h and a half-life ([1]; plasma, t1/2 (half life), human plasma, individual replicates, time axis in min) of 1.37 h. For the same compound, the inhibition at 0.03 µM ([2]; 30 nM CP612, read-out: Inhibition of novel PKCs (PKCθ)) was > 50%, the IC50 ([2]; Figure 1B PKC isozyme panel) was 30.7 nM and the IC50 [3] was 65.9 ± 10.8 nM. The half-life at 8.5 μM ([4]; Microsomal clearance t½ (min)) was 10.5 ± 1.31 h, the half-life at 8.5 μM ([4]; t1/2 (half life)) was 10.8 h and the half-life at 8.5 μM ([4]; t1/2 (half life), Mean) was 10.5 h. The “CLint (clearance), Mean” value [4] was 2.23, the “Microsomal clearance (in words)” value [4] was “low” and the “Microsomal clearance Cl” value [4] was 2.23 ± 0.29 µL/min. The remaining binding at 0.2 µM [5] was < 10%, the inhibition at 0.03 µM ([6]; 30 nM CP612, read-out: Inhibition of novel PKCs (PKCδ)) was > 50% and the IC50 ([6]; Figure 1B PKC isozyme panel) was 18.8 nM. For the same compound, the “Inhibition of atypical PKCζ” value [7] was “did not inhibit” and the “scanMax % of control, PKN2” value [8] was < 10 % of control.
